For series [1], the system named is Host Cell. Kind of series: Host cell toxicity in the clinical strain panel. It is filed as cell-based. The text has this: page 46: Supplementary Tables Table S1. […] MHOM/IN/2002/BHU1 0.6 >50 […] Results from one or two (both values shown) biological replicates. Table S2. […] Data represents % of reduction of parasite burden in drug- treated and vehicle control animals calculated from mean LDU data.

Series [2] is described as follows: Pharmacokinetics in male Sprague Dawley rats. It is filed as in vivo. As to conditions: rat. The procedure: Male Sprague Dawley rats (n=3) were dosed either intravenously at a target dose of 3 mg/kg or orally at a target dose of 10, 30, 100 and 300 mg/kg. Following discrete intravenous tail vein dosing from a solution of 5% DMSO/20% kleptose in saline, serial blood samples (~10 µl) were taken via lateral tail vein at 0.01, 0.05, 0.08, 0.25, 0.5, 1, 2, 4, 6, 8 and 24 h post dose and 1/9 diluted with miliQ water, frozen on dry ice, then stored at approximately –20 °C or below until analysis.
Following discrete oral gavage dosing from a suspension of 1% methyl cellulose at target doses of 10, 30, 100 and 300 mg/kg, respectively, serial blood samples (10 µl) were taken via lateral tail vein at 0.08, 0.25, 0.5, 0.75, 1, 2, 4, 6, 8 and 24 h post dose and 1/9 diluted with miliQ water, frozen on dry ice, then stored at approximately –20°C […]
Samples were analyzed for parent compound using a method based on protein precipitation followed by UPLC-MS/MS.
Pharmacokinetic parameters, namely clearance (CL), volume of distribution at steady state (Vss) and bioavailability (F%), were estimated using Phoenix, WinNonLin 6.3.
Data analysis and calculation of pharmacokinetic parameters was performed using Phoenix, WinNonLin Version 6.3.
Following the intravenous administration, the whole blood clearance was calculated by determining the dose administered to each animal and dividing by the AUC0-∞ . The estimate of the volume of distribution at steady state (VSS) was calculated as MRT*CL, where MRT is the mean residence time, calculated by AUMC0-∞ /AUC0-∞.
For both intravenous and oral administration, the systemic exposures were determined by calculating the area under the blood concentration time curve (AUC) from the start of dosing to the last observed quantifiable concentration (AUC0-t) by using the linear up-log down trapezoidal rule. The slope of the terminal elimination phase was estimated by linear regression of the terminal data points (minimum 3 points) from a natural log concentration versus time plot of the data. The half-life (t1/2) of the terminal elimination phase was calculated as t1/2 = 0.693/λ. […]

For series [3], the system named is caspase activity of the L. donovani proteasome. Nature of the series: Proteasome activity assay, caspase-like, L. donovani. It is filed as biochemical, Leishmania donovani. The procedure: k. Proteasome activity assays
Compounds were dispensed into black 384-well assay plates (Greiner) by acoustic dispensing (LabCyte ECHO). For potency determinations, eleven-point, one in three dilution curves were generated, with a top concentration of 100 µM. Three proteasome activities were measured using a commercially available indirect enzyme-based luminescent assay kit (Promega) with Suc-LLVY-aminoluciferin, Z-LRR-aminoluciferin and Z-nLPnLD-aminoluciferin used as substrates for chymotrypsin-like, trypsin-like and caspase-like activities, respectively. In addition to proteasome samples: L. donovani and THP1-enriched proteasomes, commercially available human purified 26S proteasome (Boston Biochem) was also assessed. Proteasome final assay concentration were 0.025 mg/ml for L. donovani and THP1-enriched proteasomes and 1 nM for human purified 26S proteasome. Proteasome solution was added to the plates containing the compounds one hour before adding the proteasome substrate solution.
Substrate solution was then added and after 30 min of incubation luminescent signal was measured in an Envision reader (PerkinElmer).
Cultures of L. donovani axenic amastigotes were diluted to either 8 x 106 or 8 x 107 […]
value. […]
value) were used as negative and positive controls, respectively. […] Protein concentrations were determined by standard Bradford assays and Laemmli sample buffer was added to samples. […]

Series [4] concerns TA98. Kind of series: Ames test, strain TA98. Here is the method:
oxidative metabolism system (S9-mix). The maximum concentration tested and […]
Compound 7a was tested in a bacterial mutation screening assay (Ames test) with Salmonella typhimurium TA1535, TA1537, TA98, TA100 and Escherichia coli WP2uvrA(pKM101) in the presence and absence of an exogenous mammalian […]
The bacterial mutation screening assay was a plate incorporation test carried out as previously described15 and according to current methodology. […]
On the technique in general: The Ames test uses bacterial strains that need an amino acid and regain growth without it when mutated back.

Where [5] appears, read: male, Sprague Dawley, whole blood, 3 mg/kg iv bolus.

Usually EC50 stands for the concentration that produces a half-maximal response. The term bioavailability denotes the share of a dose that reaches the circulation, judged against a reference dose that is usually intravenous. One may read the clearance as the rate of elimination divided by the concentration. By half-life is commonly meant how long it takes for the measured level to halve. A lower half-life goes with rapid decline.

As for `O=C(Nc1ccc(F)c(-c2ccn3c(N4CCOCC4)cnc3n2)c1)N1CCCC1` [Compound 8], the EC50 in series [1] (strain MHOM/ET/67/HU3 (LV9)), in series [1] (strain MHOM/IN/80/DD8), in series [1] (strain MHOM/IN/2002/BHU1), in series [1] (strain MHOM/MA/67/ITMAP263) and in series [1] (strain SUKA001) was more than 50 µM throughout. Moreover, in series [2] (male, Sprague Dawley, whole blood, po, 10 mg/kg, SD male rat, 10 mg/kg po, read-out: F (oral bioavailability)), the bioavailability was determined as 36%. Further, in series [2] (setting [5]), the clearance is 17 ± 5.2 mL/min/kg. The half-life in series [2] (setting [5]) is 42 ± 8.4 min. Besides, the Vd in series [2] (male, Sprague Dawley, whole blood, 3 mg/kg iv bolus, read-out: Vss) was found to be 1 L/kg. Moreover, the blood clearance in series [2] came out at 17 mL/min per kilogram. Besides, the “Cl (%LBF)” value in series [2] (3 mg/kg iv) turned out to be 22%. In addition, the “effect on caspase activity” value in series [3] was “no effect”. Besides, the “Mean revertants per plate” value in series [4] (with S9-mix, dose level 50 per plate) turned out to be 23.0; in series [4] (with S9-mix, dose level 150 per plate), 25.0; in series [4] (with S9-mix, dose level 500 per plate) it was 30.0; in series [4] (with S9-mix, dose level 1500 per plate), 24.5; in series [4] (with S9-mix, dose level 2500 per plate), 25.5; in series [4] (with S9-mix, dose level 5000 per plate) it was 25.0. Further, the “Mean revertants per plate” value in series [4] (without S9-mix, dose level 50 per plate) turned out to be 22.5; in series [4] (without S9-mix, dose level 150 per plate) it was 19.0; in series [4] (without S9-mix, dose level 500 per plate), 14.5; in series [4] (without S9-mix, dose level 1500 per plate), 19.5; in series [4] (without S9-mix, dose level 2500 per plate), 16.5; in series [4] (without S9-mix, dose level 5000 per plate), 18.0.

These data come from publication PMC6511062, “Preclinical candidate for the treatment of visceral leishmaniasis that acts through proteasome inhibition” (Proceedings of the National Academy of Sciences of the …, 2019).
